Molecular target: T1, human 11beta-HSD1 (Homo sapiens, UniProt P28845)
T1 construct: made in house; host or cells: HEK293 cells (ATCC CRL-1573), transient transfection; microsomal fraction
Experiment: Microsome assay (cortisone to cortisol conversion, ELISA-based cortisol detection)
Format: biochemical
Details: microsomes from HEK293 cells transiently expressing human 11beta-HSD1; Cortisone 50-200 nM, NADPH 1 mM; 60 min at 37° C.; read-out: 11-beta-HSD 1 IC50
Protocol: Transient Expression and Partial Purification:
The cDNA encoding the human 11beta-HSD1 protein was cloned into the expression vector pcDNA3 ([…]). This construct (for details see Alex Odermatt et al.; J Biol. Chem.,1999, Vol. 274, Issue 40, 28762-28770) was used to transiently express the protein in HEK293 cells (ATCC number: CRL-1573, described in Graham, F. L., Smiley, J., Russell, W. C., Nairn, R.; (1977)) using lipofectamine. 48 h after transfection cells were washed twice with ice-cold PBS (Phosphate buffered Saline). To 1 volume of cell suspension in PBS 2 volumes of ice-cold lysis buffer (50 mM Tris; pH7.5; 1 mM EDTA; 100 mM NaCl) were added. The cells were lysed by Potter-homogenization (20 strokes). The resulting homogenate was sonicated wit a tip sonicator (10% output; 2×30 sec.) and cleared by a low speed centrifugation (10 min×9000 g; 4° C.). […]
Microsomes isolated from HEK293 cells transiently expressing human 11beta-HSD1 (for details see above) were incubated in assay buffer (100 mM NaCl; 1 mM EDTA; 1 mM EGTA; 1 mM MgCl; 250 mM Sucrose; 20 mM Tris pH 7.4; Cortisone 50-200 nM and NADPH 1 mM) together with different concentrations of test substances. […] The amount of Cortisol produced in this assay was determined using a commercially available, ELISA-based Cortisol-detection kit (Distributed by Assay Design, Inc.). […]

T1 sequence (P28845 whole entry): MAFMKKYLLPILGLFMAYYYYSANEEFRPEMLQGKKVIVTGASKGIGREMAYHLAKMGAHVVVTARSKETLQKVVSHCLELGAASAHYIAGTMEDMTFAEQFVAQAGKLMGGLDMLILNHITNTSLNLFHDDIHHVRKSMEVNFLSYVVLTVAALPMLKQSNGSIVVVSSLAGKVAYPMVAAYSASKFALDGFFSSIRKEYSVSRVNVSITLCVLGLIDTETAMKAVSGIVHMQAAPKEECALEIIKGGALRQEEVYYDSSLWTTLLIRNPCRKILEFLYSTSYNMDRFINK

Compound: FC(F)(F)c1ccccc1-c1cc2c(nn1)CCCCCC2 [Example 41, 3-(2-Trifluoromethyl-phenyl)-5,6,7,8,9,10-hexahydro-cycloocta[c]pyridazine]
- IC50: 3 nM

Compound: Cc1c(-c2cc3c(nn2)[C@@]2(C)CC[C@@H]3C2(C)C)cnn1-c1ccccc1 [Example 1, (1S,8R)-1,11,11-Trimethyl-5-(5-methyl-1-phenyl-1H-pyrazol-4-yl)-3,4-diaza-tricyclo[6.2.1.0^2,7]undeca-2(7),3,5-triene]
- IC50: 30 nM

— patent publication US7678795B2, “Pyridazines as 11b-HSD1 inhibitors” (Hoffman-La Roche Inc., priority 2005, dated 2010)
